The source made the active and inactive calls.
Experiments:
HEK293 = assay: Fluorescence-based counterscreen for potentiators or agonists of NPY-Y2: cell-based high-throughput dose response assay to identify inhibitors of cyclic nucleotide gated ion channel (CNGC) activity. In this assay, the parental HEK293 cell line transfected with a cyclic-nucleotide gated ion channel (CNGC)-based cAMP sensor is used to measure inhibition of isoproterenol-induced CNGC activity by test compound.; format: functional; conditions: Homo sapiens
[1] = target: Neuropeptide Y receptor type 2 (Homo sapiens, UniProt P49146); assay: Fluorescence-based cell-based high-throughput dose response assay for agonists of NPY-Y2. [Related pubchem assays: 1703 (Screening assay (CNGC inhibitors).), 1359 (Screening assay (NPY-Y2 potentiators or agonists).), 1304 (Screening assay (NPY-Y1 potentiators or agonists).), 1710 (Screening assay (NPY-Y2 agonists).), 1791 (Summary AID.)]; format: functional
Neuropeptide Y receptor type 2, sequence (P49146 whole entry): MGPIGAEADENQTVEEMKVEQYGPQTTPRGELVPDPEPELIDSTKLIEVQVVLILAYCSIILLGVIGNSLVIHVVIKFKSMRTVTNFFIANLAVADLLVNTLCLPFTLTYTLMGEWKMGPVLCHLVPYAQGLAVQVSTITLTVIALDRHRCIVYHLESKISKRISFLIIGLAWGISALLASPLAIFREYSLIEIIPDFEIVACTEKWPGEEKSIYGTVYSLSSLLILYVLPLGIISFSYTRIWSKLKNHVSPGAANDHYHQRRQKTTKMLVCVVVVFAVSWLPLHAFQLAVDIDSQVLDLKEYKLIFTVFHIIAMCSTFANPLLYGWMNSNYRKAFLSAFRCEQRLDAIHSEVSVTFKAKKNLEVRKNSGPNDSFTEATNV

[2] = target: Neuropeptide Y receptor type 1 (Homo sapiens, UniProt P25929); assay: Fluorescence-based counterscreen for agonists of NPY-Y2: cell-based high-throughput dose response assay for agonists of NPY-Y1.; format: functional
[3] = target: Lysosomal acid glucosylceramidase (Homo sapiens, UniProt P04062); assay: Dose response cell-based high throughput screening assay to identify enhancers of beta-glucosidase activity. [Related pubchem assays: 784 ]; format: functional
Lysosomal acid glucosylceramidase, sequence (P04062 whole entry): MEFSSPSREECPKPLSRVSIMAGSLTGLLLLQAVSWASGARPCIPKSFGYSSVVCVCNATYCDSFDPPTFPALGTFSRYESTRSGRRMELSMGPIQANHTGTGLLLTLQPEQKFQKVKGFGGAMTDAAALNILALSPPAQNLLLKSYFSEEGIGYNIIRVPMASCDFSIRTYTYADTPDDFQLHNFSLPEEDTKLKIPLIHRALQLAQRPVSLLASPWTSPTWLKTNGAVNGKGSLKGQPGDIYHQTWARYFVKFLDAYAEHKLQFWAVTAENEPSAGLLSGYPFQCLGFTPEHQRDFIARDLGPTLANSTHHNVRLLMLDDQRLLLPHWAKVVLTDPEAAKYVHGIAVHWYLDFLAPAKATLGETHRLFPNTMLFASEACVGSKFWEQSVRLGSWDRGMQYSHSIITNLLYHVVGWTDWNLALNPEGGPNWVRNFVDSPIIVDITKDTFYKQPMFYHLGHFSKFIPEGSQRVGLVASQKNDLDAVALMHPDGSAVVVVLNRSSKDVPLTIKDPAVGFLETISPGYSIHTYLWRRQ

[4] = target: T1, Intestinal-type alkaline phosphatase (Homo sapiens, UniProt P09923); assay: human intestinal alkaline phosphatase activators, dose response, biochemical, luminescence, uHTS hits (AID 463120); format: functional
T1 sequence (P09923 whole entry): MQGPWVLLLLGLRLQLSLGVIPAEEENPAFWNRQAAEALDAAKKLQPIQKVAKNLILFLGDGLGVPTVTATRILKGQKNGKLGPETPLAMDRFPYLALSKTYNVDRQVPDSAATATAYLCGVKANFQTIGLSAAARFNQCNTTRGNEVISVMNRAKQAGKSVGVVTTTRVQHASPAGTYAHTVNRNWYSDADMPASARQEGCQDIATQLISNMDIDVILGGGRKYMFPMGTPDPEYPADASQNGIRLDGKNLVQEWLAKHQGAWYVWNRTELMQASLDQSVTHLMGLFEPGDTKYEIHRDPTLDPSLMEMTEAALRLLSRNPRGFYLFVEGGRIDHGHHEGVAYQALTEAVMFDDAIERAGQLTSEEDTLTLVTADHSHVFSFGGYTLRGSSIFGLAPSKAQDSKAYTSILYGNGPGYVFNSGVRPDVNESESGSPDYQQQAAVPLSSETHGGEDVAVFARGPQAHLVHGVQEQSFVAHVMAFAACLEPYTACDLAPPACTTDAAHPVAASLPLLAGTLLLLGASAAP

[5] = target: T1, Intestinal-type alkaline phosphatase; assay: activation of human intestinal alkaline phosphatase – biochemical, luminescent, uHTS hits, set 2, dose response (AID 488817); format: functional;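 further: potency of activators that raise enzyme activity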
[6] = target: Intestinal-type alkaline phosphatase (Mus musculus, UniProt P24822); assay: PubChem AID 488875; format: functional
Intestinal-type alkaline phosphatase (Mus musculus, UniProt P24822), sequence (P24822 whole entry): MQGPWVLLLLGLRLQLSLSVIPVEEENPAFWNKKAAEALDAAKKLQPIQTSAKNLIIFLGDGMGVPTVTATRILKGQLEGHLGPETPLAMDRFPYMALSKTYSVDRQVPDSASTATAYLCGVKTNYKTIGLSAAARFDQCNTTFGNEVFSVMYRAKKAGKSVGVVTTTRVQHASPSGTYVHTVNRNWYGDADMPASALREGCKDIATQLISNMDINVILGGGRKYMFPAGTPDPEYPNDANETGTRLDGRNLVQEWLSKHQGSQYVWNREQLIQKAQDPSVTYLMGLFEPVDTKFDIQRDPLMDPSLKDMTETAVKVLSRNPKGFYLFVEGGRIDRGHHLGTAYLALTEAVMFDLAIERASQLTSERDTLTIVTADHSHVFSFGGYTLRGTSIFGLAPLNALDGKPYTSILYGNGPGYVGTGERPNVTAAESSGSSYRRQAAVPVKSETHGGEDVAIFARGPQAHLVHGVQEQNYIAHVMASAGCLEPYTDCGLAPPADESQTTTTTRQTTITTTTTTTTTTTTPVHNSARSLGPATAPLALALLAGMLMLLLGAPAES

[7] = target: T2, Alkaline phosphatase, tissue-nonspecific isozyme (Homo sapiens, UniProt P05186); assay: activation of tissue-nonspecific alkaline phosphatase – biochemical, TNAP isozyme, human IAP uHTS hits, selectivity assay for human IAP activator project, dose response (AID 488886); format: functional;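 further: potency of compounds raising TNAP activity as a selectivity check on IAP activators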
T2 sequence (P05186 whole entry): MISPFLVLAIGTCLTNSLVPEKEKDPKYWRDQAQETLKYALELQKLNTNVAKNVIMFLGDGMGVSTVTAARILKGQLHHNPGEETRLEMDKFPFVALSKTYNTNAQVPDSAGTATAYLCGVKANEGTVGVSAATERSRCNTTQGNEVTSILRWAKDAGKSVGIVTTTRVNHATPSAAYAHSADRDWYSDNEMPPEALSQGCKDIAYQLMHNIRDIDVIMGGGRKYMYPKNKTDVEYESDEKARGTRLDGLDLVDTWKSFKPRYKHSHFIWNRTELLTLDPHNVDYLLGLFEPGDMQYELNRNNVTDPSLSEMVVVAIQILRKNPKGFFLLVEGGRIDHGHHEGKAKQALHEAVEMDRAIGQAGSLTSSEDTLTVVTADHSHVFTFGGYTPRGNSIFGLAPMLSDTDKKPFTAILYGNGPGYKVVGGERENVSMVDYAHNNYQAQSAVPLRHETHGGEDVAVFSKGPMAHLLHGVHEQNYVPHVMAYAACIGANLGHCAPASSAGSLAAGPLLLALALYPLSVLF

[8] = target: Potassium voltage-gated channel subfamily KQT member 2 (Rattus norvegicus, UniProt O88943); assay: potentiation of rat KCNQ2 current – cell-based, retigabine-insensitive compounds, dose response (AID 2654); format: functional
Potassium voltage-gated channel subfamily KQT member 2, sequence (O88943 whole entry): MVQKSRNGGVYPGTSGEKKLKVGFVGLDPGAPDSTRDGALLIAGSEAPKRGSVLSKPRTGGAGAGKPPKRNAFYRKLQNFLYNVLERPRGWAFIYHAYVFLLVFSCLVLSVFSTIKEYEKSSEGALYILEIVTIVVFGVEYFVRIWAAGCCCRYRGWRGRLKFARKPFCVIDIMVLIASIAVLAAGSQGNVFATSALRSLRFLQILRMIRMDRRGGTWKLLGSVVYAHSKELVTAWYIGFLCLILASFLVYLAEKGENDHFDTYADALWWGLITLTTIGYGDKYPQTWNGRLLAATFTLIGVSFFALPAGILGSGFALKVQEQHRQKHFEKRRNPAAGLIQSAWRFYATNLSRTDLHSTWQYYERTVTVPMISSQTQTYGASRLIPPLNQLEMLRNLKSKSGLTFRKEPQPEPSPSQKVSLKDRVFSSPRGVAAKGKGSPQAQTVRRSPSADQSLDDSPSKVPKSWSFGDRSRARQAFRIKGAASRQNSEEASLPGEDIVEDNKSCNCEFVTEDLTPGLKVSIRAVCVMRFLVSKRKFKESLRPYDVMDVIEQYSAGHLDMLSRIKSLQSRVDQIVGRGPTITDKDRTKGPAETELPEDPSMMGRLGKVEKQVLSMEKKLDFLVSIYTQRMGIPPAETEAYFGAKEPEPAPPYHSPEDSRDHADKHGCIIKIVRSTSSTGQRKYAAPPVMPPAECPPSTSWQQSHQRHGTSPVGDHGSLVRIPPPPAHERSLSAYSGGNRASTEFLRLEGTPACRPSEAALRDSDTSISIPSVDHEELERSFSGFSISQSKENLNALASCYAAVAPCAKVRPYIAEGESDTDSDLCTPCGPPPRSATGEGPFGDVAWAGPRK

[9] = target: Signal transducer and activator of transcription 3 (Homo sapiens, UniProt P40763); assay: STAT3 activation with BCL3 mRNA and toxicity – cell-based, […], BCL3 qPCR, cytotoxicity, late-stage follow-up, panel member STAT3 Activation (AID 2049)
[10] = target: T3, Kappa-type opioid receptor (Homo sapiens, UniProt P41145); assay: SAR analysis of small molecule antagonists of the kappa opioid receptor via a luminescent beta-arrestin assay - Set 3. [Related pubchem assays (depositor defined):AID1777, AID1778, AID1785, AID1786, AID1966, AID2133, AID2136, AID2285, AID2495]; format: functional
T3 sequence (P41145 whole entry): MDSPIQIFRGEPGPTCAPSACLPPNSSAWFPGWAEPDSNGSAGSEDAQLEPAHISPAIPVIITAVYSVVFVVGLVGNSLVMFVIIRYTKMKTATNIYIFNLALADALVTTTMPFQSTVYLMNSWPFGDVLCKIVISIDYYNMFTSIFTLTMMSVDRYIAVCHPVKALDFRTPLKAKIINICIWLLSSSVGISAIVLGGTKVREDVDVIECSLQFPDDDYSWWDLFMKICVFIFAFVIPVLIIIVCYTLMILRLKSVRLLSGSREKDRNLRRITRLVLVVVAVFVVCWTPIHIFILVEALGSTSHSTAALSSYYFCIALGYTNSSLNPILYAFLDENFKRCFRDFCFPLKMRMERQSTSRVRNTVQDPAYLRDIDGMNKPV

[11] = target: T3, Kappa-type opioid receptor; assay: SAR analysis of Antagonists of the Kappa Opioid Receptor (KOR) using an Image-Based Assay - Set 3. [Related pubchem assays (depositor defined):AID1777, AID1785]; format: functional
Mu-type opioid receptor = Mu-type opioid receptor (Homo sapiens, UniProt P35372); assay: SAR Analysis of Antagonists of the MOR Receptor using an Image-Based Assay - Set 3. [Related pubchem assays (depositor defined):AID1777, AID1785, AID1786, AID1966, AID2133, AID2136, AID2284, AID2285, AID2420]; format: functional
Mu-type opioid receptor, sequence (P35372 whole entry): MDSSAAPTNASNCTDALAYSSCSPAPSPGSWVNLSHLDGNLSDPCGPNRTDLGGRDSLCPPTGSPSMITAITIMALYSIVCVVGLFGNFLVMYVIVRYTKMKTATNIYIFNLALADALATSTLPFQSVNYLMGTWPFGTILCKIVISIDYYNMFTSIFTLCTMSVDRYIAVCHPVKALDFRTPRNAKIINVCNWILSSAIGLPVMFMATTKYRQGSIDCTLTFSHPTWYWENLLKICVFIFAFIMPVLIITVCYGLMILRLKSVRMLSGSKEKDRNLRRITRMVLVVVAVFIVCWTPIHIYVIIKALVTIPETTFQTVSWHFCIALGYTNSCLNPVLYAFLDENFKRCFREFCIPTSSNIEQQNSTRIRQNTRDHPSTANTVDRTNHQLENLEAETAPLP

[12] = target: Delta-type opioid receptor (Homo sapiens, UniProt P41143); assay: SAR Analysis of Antagonists of the DOR Receptor using an Image-Based Assay - Set 3. [Related pubchem assays (depositor defined):AID1777, AID1785]; format: functional;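 further: U2OS cells expressing DOR1 and beta-arrestin GFP stimulated with 100 nM SNC80; imaging of GFP-tagged beta-arrestin moving into spots after receptor activation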
Hexokinase = Hexokinase (Trypanosoma brucei, UniProt Q38C41); assay: Confirmation assay for inhibitors of Trypanosoma brucei hexokinase 1-Analogue-first series. [Related pubchem assays (depositor defined):AID1430, AID1632, AID2516, AID2560, AID2579, AID2600, AID449725, AID492951]; format: functional
Hexokinase, sequence (Q38C41 whole entry, the tested form may be a part): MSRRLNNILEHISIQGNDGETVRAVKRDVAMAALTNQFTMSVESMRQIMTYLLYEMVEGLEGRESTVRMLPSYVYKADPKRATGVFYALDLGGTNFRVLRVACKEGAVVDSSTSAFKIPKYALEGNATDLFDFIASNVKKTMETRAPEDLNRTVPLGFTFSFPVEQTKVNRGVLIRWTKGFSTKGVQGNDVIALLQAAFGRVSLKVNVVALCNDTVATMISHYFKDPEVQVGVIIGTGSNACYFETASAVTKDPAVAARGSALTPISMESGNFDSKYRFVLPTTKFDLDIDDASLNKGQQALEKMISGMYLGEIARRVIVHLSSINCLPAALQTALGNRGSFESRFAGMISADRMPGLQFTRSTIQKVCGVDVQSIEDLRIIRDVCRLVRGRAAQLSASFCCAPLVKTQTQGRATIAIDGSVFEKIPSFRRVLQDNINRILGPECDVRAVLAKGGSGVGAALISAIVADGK

[13] = target: NACHT, LRR and PYD domains-containing protein 3 (Homo sapiens, UniProt Q96P20); assay: NALP3 inhibitors in yeast, dose response, luminescent (AID 488799); format: functional
[14] = target: Polyadenylate-binding protein 1 (Homo sapiens, UniProt P11940); assay: blockers of PABP interaction with poly(A) – biochemical, fluorescence polarization, […] (AID 2014)
Polyadenylate-binding protein 1, sequence (P11940 whole entry): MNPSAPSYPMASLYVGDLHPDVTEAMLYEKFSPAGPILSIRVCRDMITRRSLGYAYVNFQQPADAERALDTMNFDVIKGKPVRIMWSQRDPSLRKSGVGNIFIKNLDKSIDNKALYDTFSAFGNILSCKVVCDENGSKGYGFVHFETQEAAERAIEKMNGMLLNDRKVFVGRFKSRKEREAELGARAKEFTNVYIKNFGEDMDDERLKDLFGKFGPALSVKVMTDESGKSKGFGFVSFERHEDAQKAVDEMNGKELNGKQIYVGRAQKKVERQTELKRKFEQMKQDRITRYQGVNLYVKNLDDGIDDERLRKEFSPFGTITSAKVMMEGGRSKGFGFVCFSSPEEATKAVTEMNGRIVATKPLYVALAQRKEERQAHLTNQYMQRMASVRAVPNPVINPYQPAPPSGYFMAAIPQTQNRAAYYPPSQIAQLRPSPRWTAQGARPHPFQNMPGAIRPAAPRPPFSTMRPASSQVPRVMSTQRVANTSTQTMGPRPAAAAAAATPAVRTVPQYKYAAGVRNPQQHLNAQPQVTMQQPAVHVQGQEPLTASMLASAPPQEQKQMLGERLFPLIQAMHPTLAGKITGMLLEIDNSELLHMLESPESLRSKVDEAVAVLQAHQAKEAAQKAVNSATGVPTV

[15] = target: T4, Heat shock factor protein 1 (Mus musculus, UniProt P38532); assay: decrease of HSF1-responsive luciferase luminescence – cell-based, NIH3T3, dose retest, confirmation (AID 2382); format: functional;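 further: NIH3T3 fibroblasts with HSF1-driven luciferase reporter stressed by proteasome inhibitor MG132; luminescence from HSF1-driven luciferase expression after 8 hours of MG132 stress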
T4 sequence (P38532 whole entry): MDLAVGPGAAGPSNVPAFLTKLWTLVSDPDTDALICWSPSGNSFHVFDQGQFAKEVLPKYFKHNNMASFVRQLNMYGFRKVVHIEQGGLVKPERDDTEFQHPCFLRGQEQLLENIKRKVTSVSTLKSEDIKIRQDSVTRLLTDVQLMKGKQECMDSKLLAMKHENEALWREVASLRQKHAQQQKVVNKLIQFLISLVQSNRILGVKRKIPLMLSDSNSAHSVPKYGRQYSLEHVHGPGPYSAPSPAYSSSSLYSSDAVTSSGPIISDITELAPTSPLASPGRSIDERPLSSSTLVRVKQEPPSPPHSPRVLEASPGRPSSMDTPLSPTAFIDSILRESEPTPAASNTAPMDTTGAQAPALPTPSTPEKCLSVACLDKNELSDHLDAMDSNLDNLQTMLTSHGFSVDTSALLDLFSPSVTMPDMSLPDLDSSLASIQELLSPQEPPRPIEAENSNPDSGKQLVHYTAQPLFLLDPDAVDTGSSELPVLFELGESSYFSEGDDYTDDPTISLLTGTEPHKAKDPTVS

[16] = target: Eukaryotic translation initiation factor 4H (Homo sapiens, UniProt Q15056); assay: eIF4H binding inhibition – biochemical, uHTS, fluorescence polarization, translation initiation inhibitor project, primary screen (AID 2012)

## Fc1ccc(Nc2c(-c3ccco3)nc3ccccn23)cc1
HEK293
  EC50: 17.9 µM (not active)
[1]
  EC50: 10.6 µM (not active)
[2]
  EC50: 6.46 µM (active)

## CCOC(=O)COc1ccc(-c2nnc(-c3ccccc3)o2)cc1
[3]
  EC50: > 10 µM (not active)

## Cc1cccc(NS(=O)(=O)c2cccc(C(=O)NNC(=O)c3ccccc3O)c2)c1
[4]
  EC50: 16.1 µM (active)
[5]
  EC50: 23.5 µM (active)
[6]
  EC50: > 100 µM (inactive)
[7]
  EC50: 0.705 µM (active)

## O=C(Nc1ccc(Cl)nc1)Nc1cccc(F)c1
[8]
  EC50: 2.81 µM (active)

## COc1ccccc1NC(=O)c1cc(-c2ccccc2)on1
[9]
  EC50: 9.62 µM (active)

## CC(C)N(CCNC(=O)c1ccc(CNS(=O)(=O)c2ccc(Br)cc2)cc1)Cc1ccccc1
[10]
  IC50: 1.32 µM (active)
[11]
  IC50: 0.421 µM (active)
Mu-type opioid receptor
  IC50: 3.22 µM (active)
[12]
  IC50: > 32 µM (inactive)

## COc1ccc(C(=O)N2CCC(=O)c3ccc(Cl)cc32)cc1
Hexokinase
  IC50: > 25 µM (inactive)

## CCCCCC(=O)N1CCN(CC/N=C/C2=C(O)CC(c3ccco3)CC2=O)CC1 (centres undefined)
[13]
  IC50: 7.3 µM (active)

## COc1ccccc1/N=C1/SCCCN1C
[14]
  IC50: 3.57 µM (active)
[15]
  EC50: > 195 µM (not active)
[16]
  IC50: > 100 µM (inactive)

From ChEMBL document CHEMBL1201862, “PubChem BioAssay data set” (2004)
